Earlier results, collected in patent US20100130406A1, “GLYCATED MILK AND USES THEREOF” (SOMNACEUTICS LIMITED, priority 2007, published 2010).

Columns and labels:
[1] = normal (non-glycated) peptide

In the case of `COc1ccc2[nH]cc(CCNC(C)=O)c2c1` [Melatonin], the “quantity having a soporific effect for some people” value (humans) is given as 3 to 5 mg.
For beta-casomorphin-7, the “sedative and anxiolytic effects” value (cockroaches) is given as “sedative and anxiolytic effects”, the “sedative and anxiolytic effects” value (chickens) is given as “sedative and anxiolytic effects” and the “half-life in the circulation” value [1] is given as “about a few minutes”. For the same molecule, the “sedative and anxiolytic effects” value (rats) was “sedative and anxiolytic effects”.
In the case of `N[C@@H](Cc1c[nH]c2ccccc12)C(=O)O` [1-tryptophane], the “quantity required for a soporific effect” value (humans) is listed as “about 1 g”.
